Measurements: patent US6716881B2, “Carbanilides used as pesticides” (Bayer Aktiengesellschaft, priority 1996, dated 2004)

Columns and labels:
Coniophora puteana = test: Inhibitory test with giant colonies of Basidiomycetes (Coniophora puteana); assay type: cell-based; settings: after 3 or 7 days at 26° C., vs untreated control; for Inhibition of the growth of the hypha in % with Coniophora puteana at an active compound concentration of 1 ppm: 1 ppm in agar; for Inhibition of the growth of the hypha in % with Coniophora puteana at an active compound concentration of 3 ppm: 3 ppm in agar; for Inhibition of the growth of the hypha in % with Coniophora puteana at an active compound concentration of 6 ppm: 6 ppm in agar
Protocol: (§1) Inhibitory Test with Giant Colonies of Basidiomycetes.
(§2) To produce a suitable preparation of active compound, 0.2 parts by weight of active compound are admixed with 99.8 parts by weight of the abovementioned solvent.
(§3) An agar which has been prepared using malt extract peptone is mixed in the liquid state with the preparation of active compound at the particular desired application rate. After the agar has set, the resulting nutrient medium is incubated at 26° C. with pieces of mycelium which had been punched out of colonies of Coniophora puteana or Coriolus versicolor.
(§4) Evaluation is carried out after 3 or 7 days' storage at 26° C. by measuring the growth of the hypha and scoring the resulting inhibition in percent in comparison to the untreated control. 0% means an inhibition of growth which corresponds to that of the untreated control, while an inhibition of growth of 100% means that no growth of the hypha is observed.

Coriolus versicolor = test: Inhibitory test with giant colonies of Basidiomycetes (Coriolus versicolor); assay type: cell-based; settings: after 3 or 7 days at 26° C., vs untreated control; for Inhibition of the growth of the hypha in % with Coriolus versicolor at an active compound concentration of 1 ppm: 1 ppm in agar; for Inhibition of the growth of the hypha in % with Coriolus versicolor at an active compound concentration of 3 ppm: 3 ppm in agar; for Inhibition of the growth of the hypha in % with Coriolus versicolor at an active compound concentration of 6 ppm: 6 ppm in agar
Protocol: as §1, §2, §3, §4

SMILES | Inhibition of the growth of the hypha in % with Coniophora puteana at an active compound concentration of 1 ppm (Coniophora puteana) [%] | Inhibition of the growth of the hypha in % with Coniophora puteana at an active compound concentration of 3 ppm (Coniophora puteana) [%] | Inhibition of the growth of the hypha in % with Coniophora puteana at an active compound concentration of 6 ppm (Coniophora puteana) [%] | Inhibition of the growth of the hypha in % with Coriolus versicolor at an active compound concentration of 1 ppm (Coriolus versicolor) [%] | Inhibition of the growth of the hypha in % with Coriolus versicolor at an active compound concentration of 3 ppm (Coriolus versicolor) [%] | Inhibition of the growth of the hypha in % with Coriolus versicolor at an active compound concentration of 6 ppm (Coriolus versicolor) [%]
Cc1nc(C(F)(F)F)c(C(=O)Nc2ccccc2C=Cc2ccccc2)s1 [Example 5] | 70 | 80 | 100 | 70 | 90 | 100
Cc1nn(C)cc1C(=O)Nc1ccccc1C=Cc1ccccc1 [Example 18] | 70 | 100 | 100 | 70 | 100 | 100
CC1=C(C(=O)Nc2ccccc2COc2ccccc2)SCCO1 [Example 141] | 80 | 100 | 100 | 90 | 100 | 100
Cn1cc(C(=O)Nc2ccccc2COc2ccccc2)c(C(F)F)n1 [Example 123] | 100 | 100 | 100 | 100 | 100 | 100
Cc1nn(C)c(Cl)c1C(=O)Nc1ccccc1CSc1ccc(Cl)cc1 [Example 84] | 80 | 80 | 100 | 90 | 100 | 100
Cc1ccc(OCc2ccccc2NC(=O)c2cn(C)nc2C(F)F)cc1 [Example 119] | 100 | 100 | 100 | 100 | 100 | 100
CC1=C(C(=O)Nc2ccccc2OCc2ccc(C)cc2C)SCCO1 [Example 78] | 70 | 80 | 90 | 90 | 90 | 100
Cc1nn(C)c(Cl)c1C(=O)Nc1ccccc1CSc1ccccc1 [Example 39] | 70 | 80 | 90 | 90 | 100 | 100
Cc1nn(C)cc1C(=O)Nc1ccccc1CSc1ccc(Cl)cc1 [Example 81] | 70 | 90 | 100 | 90 | 90 | 100
